Experimental data published in patent publication US20210137890A1, “DEUTERATED IMIDAZOLIDINEDIONE COMPOUNDS AND THEIR USES” (priority 2018, published 2021).
Entries after “also recorded” stand apart in the source; their conditions may differ. Like-named read-outs stand apart in the source and are kept apart here.

Assays:
[1] = Clinical pharmacokinetic study of HC-1119 (Stage A, plasma M0, M1, M2); conditions: steady state, 80 mg HC-1119
Experimental: Single dose biological sample collection: Subjects were given a single fasting dose on the first day of the study. Blood samples were collected before (−0.5˜0 h) and after administration 0.5, 0.75, 1, 2 h (±5 min), 4, 8, 12 h (±15 min), 24 h (±30 min, Day 2 before administration). Venous blood (3 mL) was collected, set in an anticoagulant tube (type of anticoagulant was based on established analytical test methods).
Continuous administration of biological samples collected: Blood sample collected on continuous administration Day 7, 21, 35, 42, 56, 70, 84 before administration, on Day 84 after administration 0.5, 0.75, 1, 2 h (±5 min), 4, 8, 12 h (±15 min), 24 h (±30 min, Day 85 before administration). Venous blood (3 mL) was collected, set in an anticoagulant tube (type of anticoagulant was based on established analytical test methods).
Sample Handling: Samples were centrifuged (about 3000 rpm for 10 minutes) to separate the plasma as soon as possible. Isolated plasma samples were stored in duplicate in plasma cryostat, with the tagged population's enrollment number, subject's initials, date and time of collection. Plasma samples were stored in −60° C.˜−80° C. freezer as soon as possible. One blood sample was retained at the research center and one blood sample was shipped to a specialist testing company for plasma drug concentration determination.

[2] = dog, in vivo, 90 mg/kg
[3] = mouse, in vivo
serum PSA = conditions: mCRPC patients
Experimental: There were two (2) stages or arms to the study, Stage A and Stage B.
During Stage A, the dose escalation tolerance (or tolerability) study was conducted using the traditional rule-based 3+3 design. All subjects in Stage A were involved in pharmacokinetic studies. […]
Stage A: PSA was dynamically observed to assess the initial dose-effectiveness based on data from subjects in each dose group until the end of the 12-week trial period. Serum PSA test, safety evaluation (including blood, liver and kidney function, electrocardiogram, etc.) were performed at the 6th, 8th, 10th and 12th weeks of visit, and the trial ended at the 12th week of visit.
They show the percentage change in PSA levels for subjects in the study. In both figures, the vertical axis represents the percent change in PSA levels from the baseline and the horizontal axis (numbers that are in line with the “0%”) identifies individual patient or subject numbers.

[4] = In vitro activity of metabolites M1 and M2; conditions: in vitro experiments
LNCaP = LNCaP growth inhibition; assay type: cell-based
AR = molecular target: T1, AR (Homo sapiens, UniProt P10275); conditions: read-out: Ki for AR binding
T1 sequence (P10275 1-920): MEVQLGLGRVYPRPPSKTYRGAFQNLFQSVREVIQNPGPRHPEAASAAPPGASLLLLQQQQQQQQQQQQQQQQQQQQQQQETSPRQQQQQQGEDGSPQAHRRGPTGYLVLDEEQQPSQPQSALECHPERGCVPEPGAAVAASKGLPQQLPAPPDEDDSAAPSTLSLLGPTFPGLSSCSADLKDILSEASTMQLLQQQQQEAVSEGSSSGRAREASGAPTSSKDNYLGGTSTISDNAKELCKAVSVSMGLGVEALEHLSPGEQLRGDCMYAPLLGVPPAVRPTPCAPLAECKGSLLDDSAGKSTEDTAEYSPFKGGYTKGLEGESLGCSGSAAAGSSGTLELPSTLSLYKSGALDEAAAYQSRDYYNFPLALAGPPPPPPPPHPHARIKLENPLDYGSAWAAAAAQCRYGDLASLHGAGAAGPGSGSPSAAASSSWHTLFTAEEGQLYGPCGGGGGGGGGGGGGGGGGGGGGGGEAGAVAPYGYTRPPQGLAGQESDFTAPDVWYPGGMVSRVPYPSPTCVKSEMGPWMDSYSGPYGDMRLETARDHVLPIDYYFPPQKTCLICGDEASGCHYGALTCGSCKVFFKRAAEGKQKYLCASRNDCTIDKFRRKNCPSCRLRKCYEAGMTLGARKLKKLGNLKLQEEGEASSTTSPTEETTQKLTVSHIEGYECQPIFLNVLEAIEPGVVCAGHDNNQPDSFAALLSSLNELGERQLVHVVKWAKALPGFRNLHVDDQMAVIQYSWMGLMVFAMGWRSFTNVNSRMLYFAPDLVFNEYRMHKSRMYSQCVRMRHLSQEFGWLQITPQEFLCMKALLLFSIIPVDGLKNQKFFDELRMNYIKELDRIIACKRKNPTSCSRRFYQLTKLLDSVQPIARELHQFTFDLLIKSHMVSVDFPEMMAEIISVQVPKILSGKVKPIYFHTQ

[5] = Brain penetration of parental drug and metabolites in mice (PD study); conditions: mouse, po, 10 mg/kg
[6] = Phase I dose escalation study, human; cited from earlier work

Q: With `[2H]C([2H])([2H])NC(=O)c1ccc(N2C(=S)N(c3ccc(C#N)c(C(F)(F)F)c3)C(=O)C2(C)C)cc1F` [HC-1119, 4-{3-[4-cyano-3-(trifluoromethyl)phenyl]-5,5-dimethyl-4-oxo-2-thio-1-imidazolidinyl}-2-fluoro-N-trideuteromethylbenzamide] as the compound, how does the “C24 h for the combination of the active drugs (M0+M2)” value [1] read?
A: The value was “close to that of 160 mg enzalutamide”.

Q: What about the “adult equivalent dose (HED) calculated from HNSTD” value [2] of the same compound?
A: The value was 2916 mg/day.

Q: And the Brain ([3]; po, 10 mg/kg)?
A: The Brain was 1393 ng/g.

Q: And the Plasma ([3]; po, 10 mg/kg)?
A: The Plasma was 4686 ng/mL.

Q: And the “maximum decrease in PSA levels by more than 50% from the baseline (maximum response rate)” value (serum PSA; 40 mg dose group)?
A: The value was 66.7%.

Q: What about the “rate of decrease in PSA levels by more than 50% from the baseline (response rate at week 12)” value (serum PSA; 40 mg dose group) of the same compound?
A: The value was 66.7%.

Q: What about the “maximum decrease in PSA levels by more than 50% from the baseline (maximum response rate)” value (serum PSA; 80 mg dose group) of the same compound?
A: Its value is 88.8%.

Q: What about the “rate of decrease in PSA levels by more than 50% from the baseline (response rate at week 12)” value (serum PSA; 80 mg dose group) of the same compound?
A: The value was 75%.

Q: And the “maximum decrease in PSA levels by more than 50% from the baseline (maximum response rate)” value (serum PSA; 160 mg dose group)?
A: Its value is 50%.

Q: What about the “rate of decrease in PSA levels by more than 50% from the baseline (response rate at week 12)” value (serum PSA; 160 mg dose group) of the same compound?
A: Its value is 57.1%.

Q: And the “maximum decrease in PSA levels by more than 50% from the baseline (maximum response rate)” value (serum PSA; 200 mg dose group)?
A: Its value is 100%.

Q: What about the “rate of decrease in PSA levels by more than 50% from the baseline (response rate at week 12)” value (serum PSA; 200 mg dose group) of the same compound?
A: Its value is 33.3%.

Q: Which in vitro activity [4] does the source give for `CC1(C)C(=O)N(c2ccc(C#N)c(C(F)(F)F)c2)C(=S)N1c1ccc(C(=O)O)c(F)c1` [M1] here?
A: Its in vitro activity is “inactive; also recorded: not active”.

Q: With `CC1(C)C(=O)N(c2ccc(C#N)c(C(F)(F)F)c2)C(=S)N1c1ccc(C(N)=O)c(F)c1` [M2] as the compound, how does the IC50 (LNCaP) read?
A: Its IC50 is 0.13 nM.

Q: What about the “crossing of the blood-brain barrier (BBB)” value [3] of the same compound?
A: Its value is “more readily cross the blood-brain barrier”.

Q: And the Ki (AR)?
A: The Ki was 57 nM.

Q: With `CNC(=O)c1ccc(N2C(=S)N(c3ccc(C#N)c(C(F)(F)F)c3)C(=O)C2(C)C)cc1F` [enzalutamide] as the compound, how does the concentration at 24 h ([5]; brain) read?
A: Its concentration at 24 h is 647 ng/g.

Q: And the Kp at 24 h ([5]; brain/plasma)?
A: Its Kp at 24 h is 0.31.

Q: And the concentration at 24 h ([5]; plasma)?
A: Its concentration at 24 h is 2100 ng/mL.

Q: And the “maximum tolerable dosage (MTD)” value [6]?
A: The value was 240 mg/day.
